Reference: paper PMC9833666, “Designing and identifying β-hairpin peptide macrocycles with antibiotic potential” (Science Advances, 2023)
Like-named read-outs stand apart in the source and are kept apart here. Bridge positions count the residues as written; N and C are the ends. Ends that are not written are not given here. Peptide text beside a SMILES is read from it.

Experiments:
[1] = test system: Acinetobacter baumannii AB5075; details: for AB5075 MIC FBS: 100% fetal bovine serum; for AB5075 MIC MH: Mueller-Hinton
Procedure: MICs were performed by a modifiedClinical and Laboratory Standards Institute) procedure. […] Separately, E. coli W3110 or A. baumannii AB5075 was grown overnight in 5 ml of standard MH at 37°C. Cells from these cultures were diluted to a concentration of 5 × 10^5 to 6 × 10^5 cells/ml in either standard MH, MHII, RPMI, or fetal bovine serum, and 90 μl was added to each well of the 96-well plate containing diluted peptide. Plates were wrapped twice in parafilm and incubated at 37°C for 18 to 24 hours. Wells were examined by eye against wells with no bacteria for signs of growth. MICs were reported as the minimum concentration with no observable growth. In cases where triplicate samples differed, the concentration supported by the median of the three replicates was reported. […]
For consistency, all SynCH peptides were resuspended at 10 mg/ml in water. Peptides were then visually inspected for any lack of solubility (Data File S1). […]
We had this library commercially synthesized and tested its ability to inhibit the growth of Acinetobacter baumannii AB5075, a clinically isolated Carbapenem Resistant Acinetobacter (CRA) pathogen. MICs were performed in MH as well as 100% FBS, which is likely more representative of the in vivo environment. […]

[2] = test system: Single-donor human red blood cells; assay: Hemolysis assay; format: cell-based; details: hemolysis at 128 µg/ml, fold change relative to SySA-5
Procedure, shortened: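 Peptides at 300 μg/ml (SySA library) or 128 μg/ml (SySA-5 optimization library) were incubated in triplicate with washed single-donor RBCs (1 × 10^9 cells/ml) for 3 h at 37 °C. Supernatant A540 was background-normalized to PBS and expressed relative to 1% Triton X-100 (100% hemolysis).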

[3] = High-resolution LC-MS, percentage with intramolecular disulfide bond (%S-S); format: physicochemical
Procedure: Stock peptides were diluted into PBS (pH 7.4) at 0.1 mg/ml in a volume of 150 μl and placed into 2-ml autosampler vials with small volume inserts (Fisherbrand, 03-391-8). Samples were separated by a C8 LC column, and an extracted ion chromatogram was generated for the most prevalent charge state isotopes. Mass spectra were generated for each extracted LC peak using an Agilent Technologies 6546 Accurate Mass quadrupole orthogonal acceleration–time-of-flight LC-MS instrument. Analysis was performed using Agilent MassHunter Qualitative software v10. The isotope distribution for each LC peak from each sample was compared to predicted distributions created using Agilent’s Isotope Distribution Calculator. Percentages of molecules with disulfide bonds was determined by comparing the area under the curve for each LC peak containing a disulfide bond over the total area of all relevant peaks (sum area %) and reported as a mean of three technical replicates ± 1 SD.

Escherichia coli W3110 = format: cell-based; details: for Ec W3110 MIC MH: E. coli W3110, MH medium; for W3110 MIC MHII: E. coli W3110, MHII medium; for Ec W3110 MIC RPMI: E. coli W3110, RPMI medium
E. coli W3110 = assay: Surface-localized antimicrobial display (SLAY), log2 fold change in reads; format: cell-based, Escherichia coli; details: 3 h 37°C; for l2FC_IPTG_15: induced (15 μM IPTG, low induction) vs uninduced; for l2FC_IPTG_100: induced (100 μM IPTG, high induction) vs uninduced
Procedure: SLAY procedures have been detailed previously ([25], [26]). Briefly, 100 μl of E. coli W3110 frozen cells containing the pooled SynCH plasmid library were recovered in 10 ml of LB supplemented with carbenicillin (75 μg/ml) for 2 hours. The culture was then back-diluted to an OD of 0.05, and three triplicate 5-ml cultures were set up in LB supplemented with carbenicillin (75 μg/ml). Triplicate reactions included uninduced (0 μM IPTG), low induction (15 μM IPTG), and high induction (100 μM IPTG). All triplicate cultures were then grown for 3 hours at 37°C. Plasmids from each triplicate culture were isolated via Miniprep, and Illumina sequencing primers (see table S6) were used to produce an amplicon via PCR from plasmids from each culture containing a unique i7 barcode identifier. Amplicons were then gel extracted, cleaned, concentrated, and sent to Genewiz for next-generation sequencing by Illumina HiSeq technology with 30% added Phi-X DNA.
Methods of SLAY analysis have been previously described elsewhere. Here, raw sequencing reads were trimmed of adapter sequences using Flexbar ([30]) and then assessed for quality via FastQC ([31]). Next, trimmed reads were mapped to a reference derived from all possible SynCH sequences using Kallisto ([32]). Last, log2 fold change estimates and other relevant statistics were calculated using DESeq2 ([33]).

Compound	AB5075 MIC FBS ([1]; replicate 1) [µg/mL]	AB5075 MIC FBS ([1]; replicate 2) [µg/mL]	AB5075 MIC FBS ([1]; replicate 3) [µg/mL]	AB5075 MIC MH ([1]; replicate 1) [µg/mL]	AB5075 MIC MH ([1]; replicate 2) [µg/mL]	AB5075 MIC MH ([1]; replicate 3) [µg/mL]	Fold Change Hemolysis [2]	l2FC_IPTG_15 (E. coli W3110)	l2FC_IPTG_100 (E. coli W3110)	further results
CC(C)C[C@@H]1NC(=O)[C@H](CO)NC(=O)[C@H](C(C)C)NC(=O)[C@@H]2CSSC[C@H](NC(=O)[C@H](CC(C)C)NC(=O)[C@H](CCCNC(=N)N)NC(=O)[C@H](C(C)C)NC(=O)[C@H](CCCNC(=N)N)NC(=O)[C@H](CC(C)C)NC(=O)[C@@H](N)CSSC[C@@H](C(=O)O)NC(=O)[C@H](C(C)C)NC(=O)[C@H](CCCNC(=N)N)NC1=O)C(=O)N[C@@H](CCCNC(=N)N)C(=O)N[C@@H](CCCNC(=N)N)C(=O)N[C@@H](CCCNC(=N)N)C(=O)N2 [SySA-5.21] (H-CLRVRLCRRRCVSLRVC-OH; disulfide 1-17, 7-11 (inferred); N-terminus and C-terminus assumed)	128	>128	>128	16	16	32	2.4			
CC(C)C[C@@H]1NC(=O)[C@H](CCCNC(=N)N)NC(=O)[C@H](C(C)C)NC(=O)[C@@H]2CSSC[C@H](NC(=O)[C@H](CC(C)C)NC(=O)[C@H](CCCNC(=N)N)NC(=O)[C@H](C(C)C)NC(=O)[C@H](CCCNC(=N)N)NC(=O)[C@H](CC(C)C)NC(=O)[C@@H](N)CSSC[C@@H](C(=O)O)NC(=O)[C@H](C(C)C)NC(=O)[C@H](CCCNC(=N)N)NC1=O)C(=O)N[C@@H](CCCNC(=N)N)C(=O)N[C@@H](CCCNC(=N)N)C(=O)N[C@@H](CCCNC(=N)N)C(=O)N2 [SySA-5.22] (H-CLRVRLCRRRCVRLRVC-OH; disulfide 1-17, 7-11 (inferred); N-terminus and C-terminus assumed)	64	64	64	32	8	32	2.1			
CC(C)C[C@@H]1NC(=O)[C@H](CCCNC(=N)N)NC(=O)[C@H](C(C)C)NC(=O)[C@H](CCCCN)NC(=O)[C@H](CCCNC(=N)N)NC(=O)[C@H](CCCNC(=N)N)NC(=O)[C@H](CCCNC(=N)N)NC(=O)[C@H](CCCNC(=N)N)NC(=O)[C@H](CCCNC(=N)N)NC(=O)[C@H](CC(C)C)NC(=O)[C@H](CCCNC(=N)N)NC(=O)[C@H](C(C)C)NC(=O)[C@H](CCCNC(=N)N)NC(=O)[C@@H](N)CSSC[C@@H](C(=O)O)NC(=O)[C@H](CCCNC(=N)N)NC1=O [SySA-5.25] (H-CRVRLRRRRRKVRLRC-OH; disulfide 1-16)							1.5			AB5075 MIC FBS ([1]; median of triplicate): > 128 µg/mL; AB5075 MIC MH ([1]; median of triplicate): 32 µg/mL
CC(C)C[C@@H]1NC(=O)[C@H](CCCNC(=N)N)NC(=O)[C@H](C(C)C)NC(=O)[C@@H]2CSSC[C@H](NC(=O)[C@H](CC(C)C)NC(=O)[C@H](CCCNC(=N)N)NC(=O)[C@H](C(C)C)NC(=O)[C@H](CCCNC(=N)N)NC(=O)[C@@H](N)CSSC[C@@H](C(=O)O)NC(=O)[C@H](CCCNC(=N)N)NC1=O)C(=O)N[C@@H](CCCNC(=N)N)C(=O)N[C@@H](CCCNC(=N)N)C(=O)N[C@@H](CCCNC(=N)N)C(=O)N[C@@H](CCCNC(=N)N)C(=O)N2 [SySA-5.26] (H-CRVRLCRRRRCVRLRC-OH; disulfide 1-16, 6-11 (inferred); N-terminus and C-terminus assumed)	>128	>128	>128	8	8	8	0.8			
CC(C)C[C@@H]1NC(=O)[C@H](CCCNC(=N)N)NC(=O)[C@@H]2CSSC[C@H](NC(=O)[C@H](CCCNC(=N)N)NC(=O)[C@H](C(C)C)NC(=O)[C@H](CCCNC(=N)N)NC(=O)[C@@H](N)CSSC[C@@H](C(=O)O)NC(=O)[C@H](CCCNC(=N)N)NC1=O)C(=O)N[C@@H](CCCNC(=N)N)C(=O)N[C@@H](CCCNC(=N)N)C(=O)N[C@@H](CCCNC(=N)N)C(=O)N[C@@H](CCCNC(=N)N)C(=O)N[C@@H](CCCNC(=N)N)C(=O)N[C@@H](CCCCN)C(=O)N2 [SySA-5.27] (H-CRVRCRRRRRKCRLRC-OH; disulfide 1-16, 5-12 (inferred); N-terminus and C-terminus assumed)	>128	>128	>128	128	128	128	0.6			
CC(C)C[C@@H]1NC(=O)[C@H](CO)NC(=O)[C@H](C(C)C)NC(=O)[C@H](CCCCN)NC(=O)[C@H](C(C)C)NC(=O)[C@H](CCCNC(=N)N)NC(=O)[C@H](CCCNC(=N)N)NC(=O)[C@H](CCCNC(=N)N)NC(=O)CNC(=O)[C@H](CC(N)=O)NC(=O)[C@H](CC(N)=O)NC(=O)[C@H](CC(C)C)NC(=O)[C@H](CCCNC(=N)N)NC(=O)[C@H](C(C)C)NC(=O)[C@H](CCCNC(=N)N)NC(=O)[C@H](C(C)C)NC(=O)[C@@H](N)CSSC[C@@H](C(=O)O)NC(=O)[C@H](C(C)C)NC(=O)[C@H](CCC(N)=O)NC1=O [SySA-26] (H-CVRVRLNNGRRRVKVSLQVC-OH; disulfide 1-20; N-terminus and C-terminus assumed)										%S-S [3]: 100%; Ec W3110 MIC MH (Escherichia coli W3110): 16 µg/mL; W3110 MIC MHII (Escherichia coli W3110): > 128 µg/mL; Ec W3110 MIC RPMI (Escherichia coli W3110): 16 µg/mL; W3110 MIC MH (Escherichia coli W3110): 16 µg/mL; W3110 MIC RPMI (Escherichia coli W3110): 16 µg/mL
CC(C)C[C@@H]1NC(=O)CNC(=O)[C@H](CCCNC(=N)N)NC(=O)[C@H](CCCNC(=N)N)NC(=O)[C@H](CCCNC(=N)N)NC(=O)[C@H](CC(N)=O)NC(=O)[C@H](CC(N)=O)NC(=O)[C@H](CC(C)C)NC(=O)[C@H](CCCNC(=N)N)NC(=O)[C@H](C(C)C)NC(=O)[C@H](CCCNC(=N)N)NC(=O)[C@H](C(C)C)NC(=O)[C@@H](N)CSSC[C@@H](C(=O)O)NC(=O)[C@H](C(C)C)NC(=O)[C@H](CCC(N)=O)NC(=O)[C@H](CC(C)C)NC(=O)[C@H](CO)NC(=O)[C@H](C(C)C)NC(=O)[C@H](CCCNC(=N)N)NC1=O [SySA-29] (H-CVRVRLNNRRRGLRVSLQVC-OH; disulfide 1-20; N-terminus and C-terminus assumed)										%S-S [3]: 100%; Ec W3110 MIC MH (Escherichia coli W3110): 16 µg/mL; W3110 MIC MHII (Escherichia coli W3110): > 128 µg/mL; Ec W3110 MIC RPMI (Escherichia coli W3110): 8 µg/mL; W3110 MIC MH (Escherichia coli W3110): 16 µg/mL; W3110 MIC RPMI (Escherichia coli W3110): 8 µg/mL
CLRIRVDDRRRRVRITLQVC (disulfide 1-20 (inferred))								0.055	0.322	
CLRIRVNDRRRGVKITLEVC (disulfide 1-20 (inferred))								0.457	0.630	
CRIKIDVDDGRRRVRLELQC (disulfide 1-20 (inferred))								0.041	0.249	
CRIKINIDDRGGTVKLEVQC (disulfide 1-20 (inferred))								-0.180	-0.210	
CVTIRVDNGGGGLRITLQVC (disulfide 1-20 (inferred))								-0.299	0.025	
